In ChEMBL document CHEMBL5357036, “Latest developments in coumarin-based anticancer agents: mechanism of action and structure-activity relationship studies” (RSC Med Chem, 2024):
In brackets after ≈: the same amount, converted by molar mass.

How the values were obtained:
SK-OV-3 [1] = assay: Antiproliferative activity against human SK-OV-3 cells assessed as reduction in cell growth by SRB assay; type: functional, cell-based
SK-OV-3 [2] = assay: Anticancer activity against human SK-OV-3 cells assessed as reduction in cell viability incubated for 24 hrs by MTT assay; type: functional, cell-based; details: SK-OV-3, 24 h
MCF7 [3] = assay: Anticancer activity against human MCF7 cells assessed as inhibition of cell proliferation measured after 48 hrs by MTT assay; type: functional, cell-based; details: MCF7, 48 h
MCF7-DOX [4] = assay: Antiproliferative activity against human MCF7-DOX cells assessed as reduction in cell viability incubated for 72 hrs by MTT assay; type: functional, cell-based
HeLa [5] = assay: Growth inhibition of human HeLa cells incubated for 48 hrs by MTT assay; type: functional
HeLa [6] = assay: Anticancer activity against human HeLa cells assessed as reduction in cell viability measured after 72 hrs by MTT assay; type: functional, cell-based
MCF7 [7] = assay: Anticancer activity against human MCF7 cells assessed as reduction in cell viability measured after 72 hrs by MTT assay; type: functional, cell-based; details: MCF7, 72 h
DU-145 [8] = assay: Anticancer activity against human DU-145 cells assessed as cell growth inhibition measured after 48 hrs by MTT assay; type: functional, cell-based; details: DU-145, 48 h
B16-F10 = assay: Cytotoxicity against mouse B16F10 cells assessed as reduction in cell viability incubated for 48 hrs by MTT assay; type: functional, cell-based; details: B16-F10, 48 h
MCF7 [9] = assay: Anticancer activity against human MCF7 cells assessed as inhibition of cell proliferation measured after 72 hrs by MTT assay; type: functional, cell-based; details: MCF7, 72 h
C6 = assay: Antiproliferative activity against rat C6 cells assessed as inhibition of cell growth; type: functional, cell-based
MGC-803 = assay: Cytotoxicity against human MGC-803 cells assessed as cell growth inhibition incubated for 24 hrs by MTT assay; type: functional, cell-based; details: MGC-803, 24 h
A549 [10] = assay: Cytotoxicity against human A549 cells assessed as cell growth inhibition incubated for 24 hrs by MTT assay; type: functional, cell-based; details: A549, 24 h
NCI-H460 = assay: Cytotoxicity against human NCI-H460 cells assessed as cell growth inhibition incubated for 24 hrs by MTT assay; type: functional, cell-based; details: NCI-H460, 24 h
HeLa [11] = assay: Cytotoxicity against human HeLa cells assessed as growth inhibition measured after 48 hrs by MTT assay; type: functional, cell-based
Ehrlich = assay: Cytotoxicity against mouse EAC cell assessed as reduction in cell viability by MTT assay; type: functional, cell-based
[12] = Cytotoxicity against mouse DLA cell assessed as reduction in cell viability by trypan blue assay; type: functional, cell-based
[13] = Cytotoxicity against mouse DLA cell assessed as reduction in cell viability by LDH leak assay; type: functional, cell-based
HepG2 [14] = assay: Antiproliferative activity against human HepG2 cells assessed as reduction in cell viability measured after 48 hrs by MTT assay; type: functional, cell-based; details: HepG2, 48 h
MCF7 [15] = assay: Antiproliferative activity against human MCF7 cells assessed as reduction in cell viability measured after 48 hrs by MTT assay; type: functional, cell-based; details: MCF7, 48 h
[16] = Cytotoxicity against rat H4-II-E cells assessed as reduction in cell viability measured after 24 hrs by MTT assay; type: functional, cell-based; details: H4IIE
HepG2 [17] = assay: Anticancer activity against human HepG2 cells assessed as reduction in cell viability by SRB assay; type: functional, cell-based
A549 [18] = assay: Anticancer activity against human A549 cells assessed as reduction in cell viability by SRB assay; type: functional, cell-based
DU-145 [19] = assay: Anticancer activity against human DU-145 cells assessed as reduction in cell viability by SRB assay; type: functional, cell-based
MCF7 [20] = assay: Anticancer activity against human MCF7 cells assessed as reduction in cell viability by SRB assay; type: functional, cell-based
MCF7-DOX [21] = assay: Antiproliferative activity against human MCF7-DOX cells assessed as reduction in cell viability by SRB assay; type: functional, cell-based
MT4 = assay: Cytotoxicity against human MT4 cells assessed as inhibition of cell growth incubated for 72 hrs by MTT assay; type: functional
MDA-MB-231 = assay: Cytotoxicity against human MDA-MB-231 cells assessed as inhibition of cell growth incubated for 72 hrs by MTT assay; type: functional
MCF7 [22] = assay: Cytotoxicity against human MCF7 cells assessed as inhibition of cell growth incubated for 72 hrs by MTT assay; type: functional
HepG2 [23] = assay: Cytotoxicity against human HepG2 cells assessed as growth inhibition measured after 48 hrs by MTT assay; type: functional, cell-based; details: HepG2, 48 h
MCF7 [24] = assay: Cytotoxicity against human MCF7 cells assessed as reduction in cell viability incubated for 48 hrs by MTT assay; type: functional, cell-based; details: MCF7, 48 h
SNB-75 = assay: Antiproliferative activity against human SNB-75 cells assessed as cell growth inhibition at 10 uM by SRB assay relative to control; type: functional
HepG2 [25] = assay: Anticancer activity against human HepG2 cells assessed as reduction in cell viability measured after 72 hrs by MTT assay; type: functional, cell-based; details: HepG2, 72 h
HepG2 [26] = assay: Antiproliferative activity against human HepG2 cells assessed as reduction in cell viability incubated for 48 hrs by MTT assay; type: functional, cell-based; details: HepG2, 48 h
HepG2 [27] = assay: Induction of apoptosis in human HepG2 cells assessed as increase in apoptotic cells at 10 uM by Annexin V-FITC staining based flow cytometry (reference value: 13.76 %); type: functional

Work on `Cc1cc(=O)oc2cc(OCCOCCN3C(=O)/C(=N/O)c4ccccc43)ccc12` yielded an IC50 (SK-OV-3 [1]) of 18.6 µM.
With `Cc1cc(=O)oc2cc(OCCOCCOCCOCN3C(=O)/C(=N/O)c4cc(F)ccc43)ccc12` the IC50 (SK-OV-3 [2]) was 23.8 µM, the IC50 (MCF7 [3]) was 11.9 µM and the IC50 (MCF7-DOX [4]) was 18.9 µM.
With `O=c1cc(-c2nccc3c2[nH]c2ccccc23)c2cc(Cl)ccc2o1` the GI50 (HeLa [5]) was 23.4 µg/mL (≈ 67.5 µM).
With `O=C(NCCOCc1no[n+]([O-])c1S(=O)(=O)c1ccccc1)c1cc2ccccc2oc1=O` the IC50 (HeLa [6]) was 0.88 µM and the IC50 (MCF7 [7]) was 0.61 µM.
`O=c1oc2ccccc2c2c1nc(-c1ccc(C(F)(F)F)cc1)c1occc12` showed an IC50 (DU-145 [8]) of 20.9 µM and an IC50 (B16-F10) of 13 µM.
For `O=C(O)COc1ccc2ccccc2c1/C=C/C(=O)c1cc2c(ccc3ccccc32)oc1=O`, the IC50 (MCF7 [9]) was 15.4 µM.
Compound `Cc1cn(Cc2cc(=O)oc3ccc(Cl)cc23)c(=O)n(Cc2cc(=O)oc3ccc(Cl)cc23)c1=O` has an IC50 (C6) of 4.85 µM.
In the case of `O=c1oc2ccccc2cc1NCc1ccc(Br)cc1`, the IC50 (MGC-803) is reported as 10.2 µM, the IC50 (A549 [10]) is reported as 8.75 µM and the IC50 (NCI-H460) is reported as 9.25 µM.
Compound `CCCCOc1ccc2cc(C(=O)NNC(=O)c3c(C)oc4nc(NCCC)n(-c5ccc(C)cc5)c(=O)c34)c(=O)oc2c1` has an IC50 (HeLa [11]) of 6.47 µM.
In the case of `COc1ccc(-c2csc(NC(=O)c3cc4ccc(OC)cc4oc3=O)n2)cc1`, the IC50 (Ehrlich) is reported as 15.3 µM, the IC50 [12] is reported as 15.6 µM and the IC50 [13] is reported as 14.2 µM.
For `N#Cc1c(NN)nc(SCc2cc(=O)oc3ccccc23)nc1-c1ccccc1`, the IC50 (HepG2 [14]) was 5.5 µM and the IC50 (MCF7 [15]) was 6.9 µg/mL (≈ 17.2 µM).
With `O=C(Nc1ccc(/C=C/C(=O)c2cc3ccccc3oc2=O)cc1)Nc1ccc(C(F)(F)F)cc1` the IC50 [16] was 1.62 µM.
`Cc1cc(=O)oc2cc(OCCOCCN3C(=O)/C(=N/O)c4cc(F)ccc43)ccc12` showed an IC50 (HepG2 [17]) of 10.3 µM, an IC50 (A549 [18]) of 10.9 µM and an IC50 (DU-145 [19]) of 20.8 µM. For the same compound, the IC50 (MCF7 [20]) was 11.3 µM and the IC50 (MCF7-DOX [21]) was 14.5 µM.
`CC(=O)c1cc2cc(Nc3c(C)cc(C)c(-c4cc5ccccc5nc4F)c3C)c(=O)oc2cc1O` gave a GI50 (MT4) of 12.6 µM, a GI50 (MDA-MB-231) of 11.8 µM and a GI50 (MCF7 [22]) of 10.5 µM.
With `CCCCOc1ccc2cc(C(=O)NNC(=O)c3c(C)oc4nc(N(CCC)CCC)n(-c5ccc(C)cc5)c(=O)c34)c(=O)oc2c1` the IC50 (HepG2 [23]) was 4.87 µM.
In the case of `O=c1oc2ccccc2c2c1nc(-c1ccccn1)c1occc12`, the IC50 (MCF7 [24]) is reported as 8 µM.
For `COc1cc2c3c(c(=O)oc2cc1OS(=O)(=O)c1ccc(C(F)(F)F)cc1)CCCCC3`, the inhibition at 10 µM (SNB-75) was 91.9%.
Compound `O=C(OCCCOc1no[n+]([O-])c1S(=O)(=O)c1ccccc1)c1cc2ccccc2oc1=O` has an IC50 (HepG2 [25]) of 3.86 µM.
Compound `C/C(=N\Nc1nc(-c2ccccc2)cs1)c1ccc(NS(=O)(=O)c2ccc3oc(=O)ccc3c2)cc1` has an IC50 (HepG2 [26]) of 3.48 µM and an Activity (HepG2 [27]) of 1.75%.
